Experimental findings from patent EP4467141A1, “PYRAZOLO-QUINOLINES AS SELECTIVE INHIBITORS OF GENOTOXIC STRESS-INDUCED IKK/NF- KB PATHWAYS FOR CANCER THERAPY” (Max-Delbrück-Centrum für Molekulare Medizin in der …, priority 2023, dated 2024) are described below.

Molecules are shown by their SMILES.

Common to all, as to assay: Kinase panel study
Format in all cases: biochemical
What all share (conditions): read-out: Percentage of inhibition; for inhibition at 1 µM: 1000nM; for inhibition at 10 µM: 10000nM

Experiment [1] concerns the target T1, FGR (Homo sapiens, UniProt P09769).
T1 construct: purchased Thermo Fisher Scientific
Put shortly: (§1)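 Inhibition was measured in an outsourced in vitro kinase panel using the ZLyte or Adapta format under the provider's standard procedures. Values are percent inhibition at 10 µM or 1 µM compound, and IC50s were also obtained.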

The target of experiment [2] is T2, KIT V559D V654A (Homo sapiens, UniProt P10721, V559D/V654A).
T2 construct: purchased Thermo Fisher Scientific
Summed up: as §1

In experiment [3] the target is T3, NIM1K (Homo sapiens, UniProt Q8IY84).
T3 construct: purchased Thermo Fisher Scientific
Put shortly:
as §1

Experiment [4] concerns the target T4, FGFR1 (Homo sapiens, UniProt P11362).
T4 construct: purchased Thermo Fisher Scientific
Summed up:
as §1

Experiment [5] has as its target T5, STK22B (TSSK2) (Homo sapiens, UniProt Q96PF2).
T5 construct: purchased Thermo Fisher Scientific
T5 sequence (Q96PF2 1-358): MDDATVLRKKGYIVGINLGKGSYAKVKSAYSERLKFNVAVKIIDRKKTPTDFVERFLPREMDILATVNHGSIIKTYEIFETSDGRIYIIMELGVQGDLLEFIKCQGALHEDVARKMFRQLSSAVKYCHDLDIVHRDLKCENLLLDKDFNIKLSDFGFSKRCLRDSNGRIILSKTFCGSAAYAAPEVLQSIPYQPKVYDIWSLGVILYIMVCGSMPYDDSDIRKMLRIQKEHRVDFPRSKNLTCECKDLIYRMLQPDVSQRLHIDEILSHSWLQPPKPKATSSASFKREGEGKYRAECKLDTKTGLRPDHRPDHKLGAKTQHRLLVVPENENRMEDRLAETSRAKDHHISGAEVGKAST
Put shortly:
as §1

Experiment [6] deals with T6, PAK4 (Homo sapiens, UniProt O96013).
T6 construct: purchased Thermo Fisher Scientific
Summed up: as §1

For experiment [7], the target named is T7, CAMK2B (CaMKII beta) (Homo sapiens, UniProt Q13554).
T7 construct: purchased Thermo Fisher Scientific
Summed up: as §1

Experiment [8] concerns the target T8, EPHB2 (Homo sapiens, UniProt P29323).
T8 construct: purchased Thermo Fisher Scientific
T8 sequence (P29323 19-1055): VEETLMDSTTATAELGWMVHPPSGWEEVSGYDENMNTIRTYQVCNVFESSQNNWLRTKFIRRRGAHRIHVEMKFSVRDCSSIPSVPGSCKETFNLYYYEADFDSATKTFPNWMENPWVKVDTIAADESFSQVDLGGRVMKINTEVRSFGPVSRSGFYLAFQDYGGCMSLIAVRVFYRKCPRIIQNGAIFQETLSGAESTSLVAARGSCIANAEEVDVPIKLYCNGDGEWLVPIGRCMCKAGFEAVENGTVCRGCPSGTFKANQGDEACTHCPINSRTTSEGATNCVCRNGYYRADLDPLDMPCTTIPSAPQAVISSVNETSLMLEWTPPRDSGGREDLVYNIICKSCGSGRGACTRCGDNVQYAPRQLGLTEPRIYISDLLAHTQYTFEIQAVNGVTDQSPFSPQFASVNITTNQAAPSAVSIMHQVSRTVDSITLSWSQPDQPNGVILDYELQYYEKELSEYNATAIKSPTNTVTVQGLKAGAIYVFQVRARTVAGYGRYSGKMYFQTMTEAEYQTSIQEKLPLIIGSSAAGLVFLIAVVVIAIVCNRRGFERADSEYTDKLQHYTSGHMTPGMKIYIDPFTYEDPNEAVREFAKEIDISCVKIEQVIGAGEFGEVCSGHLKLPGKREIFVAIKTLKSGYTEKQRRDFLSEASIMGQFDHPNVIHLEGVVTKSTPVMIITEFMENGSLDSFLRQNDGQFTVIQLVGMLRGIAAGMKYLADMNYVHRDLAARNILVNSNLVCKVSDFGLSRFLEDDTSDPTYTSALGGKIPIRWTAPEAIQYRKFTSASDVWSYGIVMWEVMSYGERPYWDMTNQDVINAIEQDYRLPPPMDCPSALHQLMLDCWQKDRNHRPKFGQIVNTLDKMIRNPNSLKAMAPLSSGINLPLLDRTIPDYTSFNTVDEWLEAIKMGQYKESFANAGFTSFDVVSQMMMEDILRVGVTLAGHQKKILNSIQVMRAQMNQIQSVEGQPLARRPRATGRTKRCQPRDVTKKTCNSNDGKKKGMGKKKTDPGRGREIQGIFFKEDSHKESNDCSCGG
Put shortly:
as §1

The target in experiment [9] is T9, RPS6KA2 (RSK3) (Homo sapiens, UniProt Q15349).
T9 construct: purchased Thermo Fisher Scientific
Put shortly: as §1

T6 sequence (O96013 whole entry): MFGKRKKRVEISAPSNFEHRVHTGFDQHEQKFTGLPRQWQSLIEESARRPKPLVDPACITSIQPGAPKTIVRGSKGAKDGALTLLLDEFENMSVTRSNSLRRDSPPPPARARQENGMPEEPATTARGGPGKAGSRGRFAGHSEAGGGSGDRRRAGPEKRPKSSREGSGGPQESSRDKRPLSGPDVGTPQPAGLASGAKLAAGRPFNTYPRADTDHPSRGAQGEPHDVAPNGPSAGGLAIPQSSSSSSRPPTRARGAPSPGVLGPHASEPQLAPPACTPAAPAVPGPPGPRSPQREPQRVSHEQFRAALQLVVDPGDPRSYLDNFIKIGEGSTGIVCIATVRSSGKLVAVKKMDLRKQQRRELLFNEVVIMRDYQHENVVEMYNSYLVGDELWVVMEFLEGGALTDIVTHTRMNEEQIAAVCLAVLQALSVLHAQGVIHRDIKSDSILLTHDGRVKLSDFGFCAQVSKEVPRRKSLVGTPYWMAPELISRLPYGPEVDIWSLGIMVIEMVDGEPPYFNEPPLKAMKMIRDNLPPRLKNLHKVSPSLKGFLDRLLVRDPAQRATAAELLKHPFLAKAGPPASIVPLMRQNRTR
T2 sequence (P10721 26-976 V559D/V654A): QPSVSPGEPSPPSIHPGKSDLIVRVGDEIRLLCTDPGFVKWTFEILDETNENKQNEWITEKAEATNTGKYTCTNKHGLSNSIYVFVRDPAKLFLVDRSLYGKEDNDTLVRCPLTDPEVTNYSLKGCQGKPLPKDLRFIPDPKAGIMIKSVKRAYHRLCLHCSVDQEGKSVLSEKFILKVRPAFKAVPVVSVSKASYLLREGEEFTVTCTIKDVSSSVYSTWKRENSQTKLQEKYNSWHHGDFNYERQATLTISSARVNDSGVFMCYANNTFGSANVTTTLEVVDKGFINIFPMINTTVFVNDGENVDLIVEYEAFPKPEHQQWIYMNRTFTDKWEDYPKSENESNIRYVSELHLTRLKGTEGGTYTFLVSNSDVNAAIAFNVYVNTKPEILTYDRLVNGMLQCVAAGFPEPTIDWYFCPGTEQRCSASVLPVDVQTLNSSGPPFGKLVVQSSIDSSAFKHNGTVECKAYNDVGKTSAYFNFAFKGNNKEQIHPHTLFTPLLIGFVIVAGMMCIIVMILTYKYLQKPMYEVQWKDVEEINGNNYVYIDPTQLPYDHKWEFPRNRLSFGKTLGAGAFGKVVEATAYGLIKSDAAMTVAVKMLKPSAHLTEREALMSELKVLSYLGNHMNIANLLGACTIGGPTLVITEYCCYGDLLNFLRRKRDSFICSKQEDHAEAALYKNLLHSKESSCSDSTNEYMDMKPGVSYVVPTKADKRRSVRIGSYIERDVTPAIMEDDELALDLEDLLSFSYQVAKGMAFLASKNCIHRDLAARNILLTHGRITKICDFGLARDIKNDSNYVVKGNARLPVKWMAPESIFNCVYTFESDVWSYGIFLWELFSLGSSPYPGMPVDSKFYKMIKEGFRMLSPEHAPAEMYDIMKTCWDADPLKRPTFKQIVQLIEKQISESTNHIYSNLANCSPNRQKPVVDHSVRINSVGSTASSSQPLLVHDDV
T3 sequence (Q8IY84 whole entry): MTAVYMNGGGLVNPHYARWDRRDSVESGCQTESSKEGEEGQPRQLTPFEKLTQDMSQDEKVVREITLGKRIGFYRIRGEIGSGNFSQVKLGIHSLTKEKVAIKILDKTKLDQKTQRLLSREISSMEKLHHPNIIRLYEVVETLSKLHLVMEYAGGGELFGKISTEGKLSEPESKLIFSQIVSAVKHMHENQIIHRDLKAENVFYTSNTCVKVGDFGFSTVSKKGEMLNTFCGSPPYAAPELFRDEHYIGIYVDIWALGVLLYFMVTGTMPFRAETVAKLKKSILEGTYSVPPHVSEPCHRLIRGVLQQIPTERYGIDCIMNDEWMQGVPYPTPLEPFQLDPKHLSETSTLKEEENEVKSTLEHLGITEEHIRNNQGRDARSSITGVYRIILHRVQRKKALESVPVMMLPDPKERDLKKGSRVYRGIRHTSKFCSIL
T9 sequence (Q15349 whole entry): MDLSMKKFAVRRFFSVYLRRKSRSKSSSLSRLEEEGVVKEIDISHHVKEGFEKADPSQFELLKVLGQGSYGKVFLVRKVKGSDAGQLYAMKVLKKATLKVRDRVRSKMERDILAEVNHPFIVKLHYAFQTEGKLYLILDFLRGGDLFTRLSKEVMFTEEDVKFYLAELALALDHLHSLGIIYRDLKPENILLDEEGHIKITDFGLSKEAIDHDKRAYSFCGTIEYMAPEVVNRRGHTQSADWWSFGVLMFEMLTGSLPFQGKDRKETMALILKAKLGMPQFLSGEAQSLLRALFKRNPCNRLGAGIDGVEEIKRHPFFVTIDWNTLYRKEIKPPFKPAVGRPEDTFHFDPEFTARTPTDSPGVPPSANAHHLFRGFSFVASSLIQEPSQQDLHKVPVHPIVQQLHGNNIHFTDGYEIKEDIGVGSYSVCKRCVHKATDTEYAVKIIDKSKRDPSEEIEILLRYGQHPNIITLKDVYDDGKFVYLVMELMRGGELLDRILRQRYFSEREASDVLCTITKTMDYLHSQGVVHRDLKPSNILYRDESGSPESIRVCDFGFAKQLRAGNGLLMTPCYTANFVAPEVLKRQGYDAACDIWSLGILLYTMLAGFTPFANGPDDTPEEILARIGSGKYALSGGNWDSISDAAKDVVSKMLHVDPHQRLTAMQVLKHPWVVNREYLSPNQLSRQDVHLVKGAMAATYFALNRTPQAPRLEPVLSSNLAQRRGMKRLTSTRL
T1 sequence (P09769 whole entry): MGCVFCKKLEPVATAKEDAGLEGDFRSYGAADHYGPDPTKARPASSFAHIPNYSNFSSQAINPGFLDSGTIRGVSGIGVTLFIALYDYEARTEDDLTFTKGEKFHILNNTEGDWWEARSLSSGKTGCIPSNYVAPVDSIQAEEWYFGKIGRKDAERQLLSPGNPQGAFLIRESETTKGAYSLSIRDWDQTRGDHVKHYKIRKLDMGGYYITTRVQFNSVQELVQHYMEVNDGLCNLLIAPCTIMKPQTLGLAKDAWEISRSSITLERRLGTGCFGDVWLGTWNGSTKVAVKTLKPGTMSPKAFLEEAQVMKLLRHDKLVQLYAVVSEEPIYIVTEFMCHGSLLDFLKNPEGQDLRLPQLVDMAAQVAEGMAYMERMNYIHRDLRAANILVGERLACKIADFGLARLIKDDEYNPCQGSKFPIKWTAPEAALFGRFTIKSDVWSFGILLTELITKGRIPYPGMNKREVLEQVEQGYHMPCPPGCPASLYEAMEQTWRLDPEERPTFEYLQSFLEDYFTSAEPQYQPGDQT
T4 sequence (P11362 22-822): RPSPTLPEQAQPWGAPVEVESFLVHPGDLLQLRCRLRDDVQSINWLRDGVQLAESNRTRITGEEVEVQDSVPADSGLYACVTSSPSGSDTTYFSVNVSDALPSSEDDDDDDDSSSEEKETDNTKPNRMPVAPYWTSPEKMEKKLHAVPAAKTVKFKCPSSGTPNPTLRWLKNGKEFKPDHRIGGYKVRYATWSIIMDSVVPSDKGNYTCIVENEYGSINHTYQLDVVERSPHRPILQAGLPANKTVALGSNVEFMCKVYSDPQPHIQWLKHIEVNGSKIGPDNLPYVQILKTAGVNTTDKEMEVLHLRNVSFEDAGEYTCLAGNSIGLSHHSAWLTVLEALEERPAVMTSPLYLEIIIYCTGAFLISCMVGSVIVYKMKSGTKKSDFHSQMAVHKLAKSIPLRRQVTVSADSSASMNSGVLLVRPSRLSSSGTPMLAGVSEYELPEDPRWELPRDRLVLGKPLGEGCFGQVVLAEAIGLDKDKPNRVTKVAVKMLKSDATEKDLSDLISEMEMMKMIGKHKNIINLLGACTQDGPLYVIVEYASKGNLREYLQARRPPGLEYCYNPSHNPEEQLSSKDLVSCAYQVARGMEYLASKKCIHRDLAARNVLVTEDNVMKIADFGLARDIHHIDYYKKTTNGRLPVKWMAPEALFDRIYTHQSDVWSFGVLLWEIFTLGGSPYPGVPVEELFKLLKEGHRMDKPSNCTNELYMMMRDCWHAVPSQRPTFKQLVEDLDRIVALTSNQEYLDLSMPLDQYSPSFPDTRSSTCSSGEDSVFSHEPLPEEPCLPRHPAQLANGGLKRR

The term inhibition denotes the relative decrease from the control value, in per cent. For `COc1ccc2c(c1OC)c(=O)n1c3ccc(O)cc3c3ccnc2c31` [MW01, 5-Hydroxy-10,11-dimethoxy-9H-benzo[c]indolo[3,2,1-ij][1,5]naphthyridin-9-one], the inhibition at 1 µM in [1] was 10%; in experiment [2], -10%; in experiment [3], 7%; in experiment [4], 6%; in experiment [5], 11%; in [6] it was 13%. Moreover, the inhibition at 1 µM in experiment [7] stood at 9%; in [8], 10%; in experiment [9] it was 6%. Further, the inhibition at 10 µM in experiment [1] is 26%; in experiment [2], -12%; in experiment [3], 13%; in experiment [4], 5%; in experiment [5], 20%; in experiment [6], 20%. For the same molecule, the inhibition at 10 µM was found to be 37% in [7], 17% in experiment [8] and 11% in experiment [9].
For `COc1ccc2cc3c(N)nn(C(=O)c4cccc(N(C)C)c4)c3nc2c1` [MW05, (3-Amino-7-methoxypyrazolo[3,4-b]quinolin-1-yl)-[3-(dimethylamino)phenyl]methanone], the inhibition at 1 µM in experiment [1] is 5%; in experiment [2], -16%; in [3], 7%; in experiment [4], -1%; in experiment [5], 11%; in experiment [6], 11%. Besides, the inhibition at 1 µM in [7] came out at 5%; in [8], 6%; in experiment [9], 5%. For the same molecule, the inhibition at 10 µM is 15% in [1]; -37% in experiment [2]; 2% in experiment [3]; -7% in [4]; 2% in [5]; 15% in experiment [6]. The inhibition at 10 µM turned out to be 3% in experiment [7], 1% in experiment [8] and 6% in [9].
